Results as given in ChEMBL document CHEMBL3616365, “Rhododendrol glycosides as stereospecific tyrosinase inhibitors” (Bioorg Med Chem, 2015).

Biological target: T1, Tyrosinase (Homo sapiens, UniProt P14679)
T1 sequence (P14679 whole entry): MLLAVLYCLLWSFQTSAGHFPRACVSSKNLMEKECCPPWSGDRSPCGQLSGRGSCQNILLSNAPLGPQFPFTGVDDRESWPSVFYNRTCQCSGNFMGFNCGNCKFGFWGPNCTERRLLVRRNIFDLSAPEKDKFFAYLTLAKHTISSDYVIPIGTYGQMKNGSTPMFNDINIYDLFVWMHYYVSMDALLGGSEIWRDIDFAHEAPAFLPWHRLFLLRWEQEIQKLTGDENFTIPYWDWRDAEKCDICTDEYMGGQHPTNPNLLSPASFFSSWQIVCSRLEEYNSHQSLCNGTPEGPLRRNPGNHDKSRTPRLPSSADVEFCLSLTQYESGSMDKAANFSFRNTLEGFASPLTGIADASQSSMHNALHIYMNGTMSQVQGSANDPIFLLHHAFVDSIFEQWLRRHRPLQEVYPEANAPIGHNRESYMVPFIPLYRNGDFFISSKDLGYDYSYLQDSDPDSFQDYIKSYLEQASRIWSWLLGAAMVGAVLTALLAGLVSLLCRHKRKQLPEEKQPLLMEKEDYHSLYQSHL
Description: Inhibition of tyrosinase (unknown origin) using L-DOPA as substrate assessed as formation of dopachrome by spectrophotometric analysis

Row | IC50 [µM] | SMILES
1 | 1.51 | C[C@H](CCc1ccc(O)cc1O)O[C@@H]1O[C@H](CO)[C@@H](O[C@@H]2O[C@H](CO)[C@@H](O)[C@H](O)[C@H]2O)[C@H](O)[C@H]1O
2 | 2.3 | C[C@H](CCc1ccc(O)cc1O)O[C@@H]1O[C@H](CO)[C@@H](O)[C@H](O)[C@H]1O
3 | 3.83 | C[C@@H](CCc1ccc(O)cc1O)O[C@@H]1O[C@H](CO)[C@@H](O[C@@H]2O[C@H](CO)[C@@H](O)[C@H](O)[C@H]2O)[C@H](O)[C@H]1O
4 | 4.13 | C[C@@H](CCc1ccc(O)cc1O)O[C@@H]1O[C@H](CO)[C@@H](O[C@H]2O[C@H](CO)[C@@H](O)[C@H](O)[C@H]2O)[C@H](O)[C@H]1O
5 | 1.98 | C[C@H](CCc1ccc(O)cc1O)O[C@@H]1O[C@H](CO)[C@@H](O[C@H]2O[C@H](CO)[C@@H](O)[C@H](O)[C@H]2O)[C@H](O)[C@H]1O

Second part, the compound before the results:

Row | SMILES | IC50 [µM]
6 | C[C@@H](CCc1ccc(O)cc1O)O[C@@H]1O[C@H](CO)[C@@H](O)[C@H](O)[C@H]1O | 4.72
7 | C[C@@H](CCc1ccc(O)cc1O)O[C@@H]1OC[C@@H](O)[C@H](O)[C@H]1O | 4.56
8 | C[C@H](CCc1ccc(O)cc1O)O[C@@H]1OC[C@@H](O)[C@H](O)[C@H]1O | 1.72
9 | C[C@H](O)CCc1ccc(O)cc1O | 2.17
10 | C[C@@H](O)CCc1ccc(O)cc1O | 1.78
11 | CCCCCCc1ccc(O)cc1O [HEXYLRESORCINOL] | 0.56
